Here are results for 16 molecules from patent US6232503A, “Alkynyl aryl sulfones” (Lonza Inc., priority 1999, dated 2001).

≈ marks a conversion by molar mass, not a printed value. Some results are limits rather than exact numbers.

What all share (type): cell-based
One test has as its system Staphylococcus aureus. Briefly: Zone of inhibition assay, 24 hour minimum inhibitory concentration, Staphylococcus aureus. The note with it: Day-Engley neutralizing media. The protocol: (§1) The minimum inhibitory concentrations of ethynyl 4-methylbenzene sulfone, available from Aldrich Chemical Co., and the sulfones prepared in Examples 1-15 were determined against the bacteria Burkholderia cepacia and Staphylococcus aureus by the zone of inhibition assay method common in the art. Burkholderia cepacia and Staphylococcus aureus was contacted with each sulfone for 24 hours in a Day-Engley neutralizing media (Difco Manual, 10th Ed., p. 261-263 (1984). The results are shown in Table 1.

Another test deals with Burkholderia cepacia. Briefly: Zone of inhibition assay, 24 hour minimum inhibitory concentration, Burkholderia cepacia. The conditions noted are these: Day-Engley neutralizing media. The procedure:
as §1

For another test, the system named is Aspergillus niger. Briefly: Zone of inhibition assay, 5 day minimum inhibitory concentration, Aspergillus niger. The conditions noted are these: ATCC16404, 120 h; Aspergillus niger ATCC #16404; 5 days; Day-Engley neutralizing media. The procedure: The minimum inhibitory concentrations of ethynyl 4-methylbenzene sulfone and the sulfones prepared in Examples 1-15 were determined against the fungi Aspergillus niger by the zone of inhibition assay method common in the art. A. niger ATCC #16404 was contacted with each sulfone for 5 days in a Day-Engley neutralizing media.

As a reminder, the MIC is the least concentration at which growth counts as inhibited. Lower therefore signals greater potency. For the molecule `C#CS(=O)(=O)c1ccc(C(C)(C)C)cc1` [Ethynyl 4-t-Butylbenzene Sulfone, Ethynyl 4-t-butylbenzene sulfone], the results for the MIC in the test on Staphylococcus aureus, against Burkholderia cepacia and against Aspergillus niger were 30 to 100 µg/mL (≈ 135 to 450 µM), above 1000 µg/mL and above 10000 µg/mL, respectively.

`O=S(=O)(C#CI)c1ccccc1` [Iodoethynyl Benzene Sulfone, Iodoethynyl benzene sulfone]: the MIC in the test on Staphylococcus aureus lay within 0.3 to 1 µg/mL (≈ 1.03 to 3.42 µM); in the test on Burkholderia cepacia it was 3 to 10 µg/mL (≈ 10.3 to 34.2 µM); with Aspergillus niger, 300 to 1000 µg/mL (≈ 1030 to 3420 µM).

As to `Cc1cc(C)c(S(=O)(=O)C#CI)c(C)c1` [Iodoethynyl 2,4,6-trimethylbenzene sulfone], the values for the MIC in the test with Staphylococcus aureus, in the test on Burkholderia cepacia and against Aspergillus niger were 100 to 300 µg/mL (≈ 299 to 898 µM), 300 to 1000 µg/mL (≈ 898 to 2990 µM) and 100 to 300 µg/mL (≈ 299 to 898 µM), respectively.

Take `CC(C)(C)c1ccc(S(=O)(=O)C#CI)cc1` [Iodoethynyl 4-t-Butylbenzene Sulfone, Iodoethynyl 4-t-butylbenzene sulfone]: the values for the MIC in the test on Staphylococcus aureus, against Burkholderia cepacia and with Aspergillus niger were 1 to 3 µg/mL (≈ 2.87 to 8.62 µM), 300 to 1000 µg/mL (≈ 862 to 2870 µM) and 100 to 300 µg/mL (≈ 287 to 862 µM), respectively.

For `Cc1ccc(S(=O)(=O)C#CI)cc1` [Iodoethynyl 4-Methylbenzene Sulfone, Iodoethynyl 4-methylbenzene sulfone], the MIC with Staphylococcus aureus lay within 0.3 to 1 µg/mL (≈ 0.98 to 3.27 µM); with Burkholderia cepacia it was 0.3 to 1 µg/mL (≈ 0.98 to 3.27 µM); in the test on Aspergillus niger it was 100 to 300 µg/mL (≈ 327 to 980 µM).

Regarding `C#CS(=O)(=O)c1ccc(C)cc1` [Ethynyl 4-Methylbenzene Sulfone, ethynyl 4-methylbenzene sulfone, reference compound], the MIC lay in the range of 3 to 10 µg/mL (≈ 16.6 to 55.5 µM) in the test on Staphylococcus aureus, 100 to 300 µg/mL (≈ 555 to 1660 µM) in the test with Burkholderia cepacia and 3000 to 10000 µg/mL (≈ 16600 to 55500 µM) in the test on Aspergillus niger.

In the case of `O=S(=O)(C#CI)c1ccc(OC(F)(F)F)cc1` [Iodoethynyl 4-trifluoromethoxybenzene sulfone], the MIC lay within 0.3 to 1 µg/mL (≈ 0.798 to 2.66 µM) against Staphylococcus aureus, 100 to 300 µg/mL (≈ 266 to 798 µM) against Burkholderia cepacia and 30 to 100 µg/mL (≈ 79.8 to 266 µM) against Aspergillus niger.

`COc1ccc(S(=O)(=O)C#CI)cc1` [Iodoethynyl 4-Methoxybenzene Sulfone, iodoethynyl 4-methoxybenzene sulfone]: the MIC in the test with Staphylococcus aureus is 3 to 10 µg/mL (≈ 9.31 to 31 µM); with Burkholderia cepacia, 30 to 100 µg/mL (≈ 93.1 to 310 µM); against Aspergillus niger, 30 to 100 µg/mL (≈ 93.1 to 310 µM).

Regarding `C#CS(=O)(=O)c1ccc(OC(F)(F)F)cc1` [Ethynyl 4-trifluoromethoxybenzene sulfone], the MIC is 3 to 10 µg/mL (≈ 12 to 40 µM) against Staphylococcus aureus, above 1000 µg/mL against Burkholderia cepacia and above 10000 µg/mL with Aspergillus niger.

For `C#CS(=O)(=O)c1c(C)cc(C)cc1C` [Ethynyl 2,4,6-Trimethylbenzene Sulfone, Ethynyl 2,4,6-trimethylbenzene sulfone], the MIC against Staphylococcus aureus lay in the range of 300 to 1000 µg/mL (≈ 1440 to 4800 µM); in the test with Burkholderia cepacia it was 300 to 1000 µg/mL (≈ 1440 to 4800 µM); against Aspergillus niger, 3000 to 10000 µg/mL (≈ 14400 to 48000 µM).

`C#CS(=O)(=O)c1ccccc1` [Ethynyl Benzene Sulfone, Ethynyl benzene sulfone]: the minimum inhibitory concentration (MIC) in the test with Staphylococcus aureus was in the range of 1 to 3 µg/mL (≈ 6.02 to 18.1 µM); with Burkholderia cepacia it was 10 to 30 µg/mL (≈ 60.2 to 181 µM); with Aspergillus niger it was 1000 to 3000 µg/mL (≈ 6020 to 18100 µM).

With `C#CS(=O)(=O)c1ccc(OC)c(OC)c1` [Ethynyl 3,4-Dimethoxybenzene Sulfone, Ethynyl 3,4-dimethoxybenzene sulfone], the MIC in the test with Staphylococcus aureus is 10 to 30 µg/mL (≈ 44.2 to 133 µM); against Burkholderia cepacia, above 1000 µg/mL; in the test on Aspergillus niger, above 10000 µg/mL.

For `C#CS(=O)(=O)c1ccc(CC)cc1` [Ethynyl 4-Ethylbenzene Sulfone], the MIC with Staphylococcus aureus was in the range of 3 to 10 µg/mL (≈ 15.4 to 51.5 µM); in the test on Burkholderia cepacia it was 300 to 1000 µg/mL (≈ 1540 to 5150 µM); in the test with Aspergillus niger it was 3000 to 10000 µg/mL (≈ 15400 to 51500 µM).

In the case of `CCc1ccc(S(=O)(=O)C#CI)cc1` [Iodoethynyl 4-Ethylbenzene Sulfone, Iodoethynyl 4-ethylbenzene sulfone], the results for the MIC against Staphylococcus aureus, with Burkholderia cepacia and against Aspergillus niger were 0.3 to 1 µg/mL (≈ 0.937 to 3.12 µM), 100 to 300 µg/mL (≈ 312 to 937 µM) and 10 to 30 µg/mL (≈ 31.2 to 93.7 µM), respectively.

Take `C#CS(=O)(=O)c1ccc(OC)cc1` [Ethynyl 4-Methoxybenzene Sulfone, ethynyl 4-methoxybenzene sulfone]: the MIC in the test with Staphylococcus aureus fell in the range of 1 to 3 µg/mL (≈ 5.1 to 15.3 µM); in the test with Burkholderia cepacia, 30 to 100 µg/mL (≈ 153 to 510 µM); with Aspergillus niger it was 1000 to 3000 µg/mL (≈ 5100 to 15300 µM).

For `COc1ccc(S(=O)(=O)C#CI)cc1OC` [Iodoethynyl 3,4-Dimethoxybenzene Sulfone, Iodoethynyl 3,4-dimethoxybenzene sulfone], the MIC in the test with Staphylococcus aureus was in the range of 30 to 100 µg/mL (≈ 85.2 to 284 µM); in the test with Burkholderia cepacia, 300 to 1000 µg/mL (≈ 852 to 2840 µM); in the test on Aspergillus niger it was 300 to 1000 µg/mL (≈ 852 to 2840 µM).
